{"source": "patent US20070219190A1", "about": "“Heterocyclic NF-kB Inhibitors” (4SC AG, priority 2006, published 2007)"}
{"tested_on": "A549-NF-κB-SEAP reporter cells", "assay": "NF-κB inflammation assay (PRINCESS NINA Instant Assay, SEAP reporter)", "format": "cell-based", "conditions": "stimulation with 2 ng/ml TNF-α; test concentration for the class not stated", "description": "Inhibition of NF-κB-Induced Inflammation:\nFor the determination of anti-inflammatory activity of the compounds the PRINCESS® NINA Instant Assay from Cell Culture Service GmbH was used. This assay is based on recombinant A549-NF-κB-SEAP reporter cells preseeded in 96-well flat bottom plates. As the transfected reporter gene for SEAP (secreted embryonic alkaline phosphatase) is under transcriptional control of a NF-κB-responsive element, the expression of this reporter is activated upon stimulation with TNF-α. SEAP secretion into the culture supernatant can be detected by the chemiluminescent substrate CSPD®. Test compounds that inhibit the NF-κB activation show reduced SEAP activity and reduced luminescent readout.\nFollowing 18 h of reactivation at 37° C., 5% CO2 and 90% relative humidity, the cells were incubated with 0.01 up to 100 μM of test compound for 4.5 h before stimulation with 2 ng/ml TNF-α. After stimulation with TNF-α for 22 h endogenous phosphatases were inactivated and CSPD® substrate was supplied for 40 min. SEAP activity then was quantified by measuring luminescence as relative light units (RLU) using a Tecan Ultra reader. Each data point was recorded in quadruplicates and EC50 values were calculated via fitting function and the Microsoft Excel Solver."}
{"smiles": "N#Cc1ccc(CN2CCC(c3nc(C(=O)N4CCC(n5nnc6cc(C(F)(F)F)ccc65)CC4)cs3)CC2)cc1", "note": "[Cp. 1, 4-(4-{4-[4-(5-Trifluoromethyl-benzotriazol-1-yl)-piperidine-1-carbonyl]-thiazol-2-yl}-piperidin-1-yl-methyl)-benzonitrile]", "Biological activity (NF-κB inflammation assay, inhibition)": "++ (“++” means 80-90%)"}
{"smiles": "N#Cc1ccc(CN2CCC(c3nc(C(=O)N4CCN(c5nsc6ccccc56)CC4)cs3)CC2)cc1", "note": "[Cp. 2, 4-{4-[4-(4-Benzo[d]isothiazol-3-yl-piperazine-1-carbonyl)-thiazol-2-yl]-piperidin-1-ylmethyl}-benzonitrile]", "Biological activity (NF-κB inflammation assay, inhibition)": "++ (“++” means 80-90%)"}
{"smiles": "N#Cc1ccc(CN2CCC(c3nc(C(=O)N4CCC(n5cnc6ccccc65)CC4)cs3)CC2)cc1", "note": "[Cp. 3, 4-{4-[4-(4-Benzoimidazol-1-yl-piperidine-1-carbonyl)-thiazol-2-yl]-piperidin-1-ylmethyl}-benzonitrile]", "Biological activity (NF-κB inflammation assay, inhibition)": "++ (“++” means 80-90%)"}
{"smiles": "COc1nc(OC)nc(N2CCC(c3nc(C(=O)N4CCN(c5nsc6ccccc56)CC4)cs3)CC2)n1", "note": "[Cp. 5, (4-Benzo[d]isothiazol-3-yl-piperazin-1-yl)-{2-[1-(4,6-dimethoxy-[1,3,5]triazin-2-yl)-piperidin-4-yl]-thiazol-4-yl}-methanone]", "Biological activity (NF-κB inflammation assay, inhibition)": "++ (“++” means 80-90%)"}
{"smiles": "COc1nc(OC)nc(N2CCC(c3nc(C(=O)N4CCC(n5cnc6ccccc65)CC4)cs3)CC2)n1", "note": "[Cp. 6, (4-Benzoimidazol-1-yl-piperidin-1-yl)-{2-[1-(4,6-dimethoxy-[1,3,5]triazin-2-yl)-piperidin-4-yl]-thiazol-4-yl}-methanone]", "Biological activity (NF-κB inflammation assay, inhibition)": "++ (“++” means 80-90%)"}
{"smiles": "COc1cc(N2CCC(c3nc(C(=O)N4CCN(c5nsc6ccccc56)CC4)cs3)CC2)nc(OC)n1", "note": "[Cp. 7, (4-Benzo[d]isothiazol-3-yl-piperazin-1-yl)-{2-[1-(2,6-dimethoxy-pyrimidin-4-yl)-piperidin-4-yl]-thiazol-4-yl}-methanone]", "Biological activity (NF-κB inflammation assay, inhibition)": "++ (“++” means 80-90%)"}
{"smiles": "O=C(c1csc(C2CCN(c3ncnc4ccsc34)CC2)n1)N1CCN(c2nsc3ccccc23)CC1", "note": "[Cp. 8, (4-Benzo[d]isothiazol-3-yl-piperazin-1-yl)-[2-(1-thieno[3,2-d]pyrimidin-4-yl-piperidin-4-yl)-thiazol-4-yl]-methanone]", "Biological activity (NF-κB inflammation assay, inhibition)": "+++ (“+++” stands for 90-100% inhibition)"}
